In US8906395B2, “Pharmaceutical composition in which solubility of partially soluble tricyclic derivative is improved” (Jeil Pharmaceutical Co., Ltd., priority 2010, dated 2014):
≈ marks a conversion by molar mass, not a printed value.

Key:
cancer cell lines = conditions: cited from earlier work
HUVEC cells = conditions: cited from earlier work
[1] = compared to a colchicine or taxol injection; cited from earlier work
tumor = conditions: in vivo; cited from earlier work
[2] = Solubility of tricyclic derivative compound in solubilizing agents (HPLC); assay type: physicochemical
Method: The solubility of the tricyclic derivative compound in a solubilizing agent was measured in the following manner.

[3] = Solubility of tricyclic derivative compound in water (HPLC); assay type: physicochemical; conditions: distilled water, room temperature, stirred 24 hours, 0.2 μm filtrate
Method: The solubility of the tricyclic derivative compound of Formula 1 in water was measured in the following manner.
1.42 mg of the tricyclic derivative compound was dissolved in acetonitrile to prepare […] of a solution which was then serially diluted to prepare 50 μl/ml, 20 μl/ml and 10 μl/ml of standard solutions. 3-ethoxythiocolchicine as an internal standard was added to each of the standard solutions which were then analyzed by HPLC to measure the area ratio of the tricyclic derivative compound.
Then, 1 g of the tricyclic derivative compound was added to 10 ml of distilled water to make a suspension which was then stirred at room temperature for 24 hours to sufficiently dissolve the compound. Then, the suspension was filtered through a 0.2 μm membrane to remove insoluble materials, and the remaining filtrate was analyzed by HPLC using 3-ethoxythiocolchicine as an internal standard to measure the area ratio of the tricyclic derivative compound, which was then compared with the area ratio of the standard curve shown in FIG. 1, thereby determining the concentration of the tricyclic derivative compound dissolved in water.

CCOc1cc2c(c(OC)c1OC)-c1ccc(SC)c(=O)cc1[C@@H](NC(=O)c1cccc(CO[N+](=O)[O-])c1F)CC2 [tricyclic derivative compound]
cytotoxicity against cancer cell lines (cancer cell lines): very strong cytotoxicity | angiogenesis inhibitory activity (HUVEC cells): strong angiogenesis inhibitory activity | toxicity in animal toxicity test [1]: significantly reduced toxicity | tumor size and weight (tumor): significantly reduces the tumor size and weight | Solubility ([2]; PEG 400:water 0:100): Not detected | solubility at 24 h ([2]; PEG 400:water 10:90, aqueous with cosolvent or surfactant or cyclodextrin): 0.21 µg/mL (≈ 0.359 µM) | solubility at 24 h ([2]; PEG 400:water 20:80, aqueous with cosolvent or surfactant or cyclodextrin): 2.94 µg/mL (≈ 5.03 µM) | solubility at 24 h ([2]; PEG 400:water 30:70, aqueous with cosolvent or surfactant or cyclodextrin): 1.24 µg/mL (≈ 2.12 µM) | solubility at 24 h ([2]; PEG 400:water 40:60, aqueous with cosolvent or surfactant or cyclodextrin): 53.9 µg/mL (≈ 92.3 µM) | solubility at 24 h ([2]; PEG 400:water 50:50, aqueous with cosolvent or surfactant or cyclodextrin): 189 µg/mL (≈ 323 µM) | solubility at 24 h ([2]; PEG 400:water 100:0, organic solvent or mixture): 52000 µg/mL (≈ 89000 µM) | solubility at 24 h ([2]; benzyl alcohol, organic solvent or mixture, solvent: Benzylalcohol): > 103000 µg/mL | solubility at 24 h ([2]; organic solvent or mixture, solvent: Ethanol): 35 µg/mL (≈ 59.9 µM) | solubility at 24 h ([2]; organic solvent or mixture, solvent: Glycerin): 4.8 µg/mL (≈ 8.21 µM) | solubility at 24 h ([2]; organic solvent or mixture, solvent: N,N-dimethylacetamide): > 218000 µg/mL | solubility at 24 h ([2]; organic solvent or mixture, solvent: Polyethylene glycol 400 (PEG 400)): 52000 µg/mL (≈ 89000 µM) | solubility at 24 h ([2]; organic solvent or mixture, solvent: Propylene glycol): 2300 µg/mL (≈ 3930 µM) | Solubility ([2]; solvent: 5% aqueous solution of hydrochloric acid): Not detected | Solubility ([2]; solvent: 5% aqueous solution of sodium hydrogen carbonate): Not detected | Solubility ([2]; solvent: 5% aqueous solution of sodium oxide): Not detected | Solubility ([2]; solvent: Water): Not detected | solubility in water [3]: 0.00 μl/ml
